Here are results for one molecule from patent publication EP0369733A2, “Fluorescent indicator dyes for alkali metal cations, their preparation and use” (THE REGENTS OF THE UNIVERSITY OF CALIFORNIA, priority 1988, dated 1990).

A word on the Kd: it is the equilibrium constant for the complex coming apart. What is called pKa is the pH at which an ionisable group is half protonated. Low values mean a group that gives up its proton readily, high ones a group that holds its proton tightly.

A short description of data set [1]: UV absorbance spectra without and with saturating cation. It counts as physicochemical. The method, then: (§1) • Footnote a: For molecular structures, see Fig. 1. • Footnote b: Except where otherwise noted, these dissociation constants were measured with the chelator dissolved in 0.1 M tetramethylammonium chloride, at a pH held high enough with 1-5 mM tris(hydroxymethyl)aminomethane for protonation to be insignificant. The absorbance spectrum, or the fluorescence excitation spectrum for those compounds (2GG, 2NN, 2OO, 2PP, 3NN) with acronyms was measured as a function of the concentration of cation added as a solid or concentrated aqueous solution of the halide salt. No correction has been made for the changing ionic strength of the solution, which started from 0.1 M and increased, but the absorbances and fluorescence amplitudes were applied for dilution of the dye and any slight quenching due to high concentrations of Cl⁻. • Footnote c: These protonation constants were determined in 0.1 M tetramethylammonium chloride, 10 mM tris(hydroxymethyl)aminomethane, titrated with 5 M H₃PO₄ to successively lower pH values measured with a Radiometer PHM84 meter. […] The first number is the wavelength in nanometers, followed in parentheses by 10⁻³ x the corresponding extinction coefficient, M⁻¹cm⁻¹. […] Emission maxima are not corrected for the spectral sensitivity of the emission detection. Quantum efficiencies were measured (13) by comparing the integral of the corrected emission spectrum with the corresponding integral for a solution of quinine bisulfate in 1 N H₂SO₄ of matched absorbance at the excitation wavelength.
UV absorbance spectra were recorded initially on a Cary 210 and later on a Perkin-Elmer Lambda Array 3840 spectrophotometer. Fluorescence excitation and emission spectra and quantum efficiencies were measured on a Spex Fluorolog 111 as described previously (13).

Data set [2] in a line: Cation titration followed by absorbance or fluorescence excitation spectra: Li⁺ binding. The settings on record: for Kd: 0.1 M tetramethylammonium chloride, 1-5 mM tris(hydroxymethyl)aminomethane, high pH, read-out: Dissociation constants (Kd) in mM for Li⁺. The method, then:
as §1
(§2) Affinities for other cations were usually measured by titrating aqueous solutions of the indicator with metal chlorides added either as solid or from concentrated stock solutions, taking care to minimize dilution and correct for it. A convenient way to mass-produce premeasured micromole to millimole aliquots of solid NaCl or KCl was to pipet saline solutions into polypropylene micro test tubes and evaporate the water in an oven. The standard ionic background was again 100 mM tetramethylammonium chloride, usually with a few mM of tris(hydroxymethyl)-aminomethane base to hold the pH high enough (pH 8-9) to insure that protonation was negligible. This convenient titration procedure had the slight disadvantage that the ionic strength was not constant, especially when large quantities of a salt had to be added due to weak affinities. […] When constant ionic strength was desired, the chelator was made up at identical concentrations in matched solutions of NaCl, KCl, or tetramethylammonium chloride, then these stocks were mixed in the desired proportions. All measurements were made at room temperature (22°, ±2° C).

Data set [3] can be described thus: Cation titration followed by absorbance or fluorescence excitation spectra: Ca²⁺ binding. Particulars: 0.1 M tetramethylammonium chloride, 1-5 mM tris(hydroxymethyl)aminomethane, high pH, read-out: Dissociation constants (Kd) in mM for Ca²⁺. The method, then: as §1, §2
Data set [4] can be described thus: Proton dissociation constants in 0.1 M tetramethylammonium chloride. Particulars: 10 mM Tris titrated with 5 M H₃PO₄.
The nature of data set [5]: Cation titration followed by absorbance or fluorescence excitation spectra: Mg²⁺ binding. Particulars: 0.1 M tetramethylammonium chloride, 1-5 mM tris(hydroxymethyl)aminomethane, high pH, read-out: Dissociation constants (Kd) in mM for Mg²⁺. The method, then: as §1
as §2, with “proportions.” for “proportions. All measurements were made at room temperature (22°, ±2° C).”

Take `COc1cc2cc(-c3ccc(C(=O)O)cc3C(=O)O)oc2cc1N1CCOCCOCCN(c2cc3oc(-c4ccc(C(=O)O)cc4C(=O)O)cc3cc2OC)CCOCC1` [Compound 2PP, N,N-bis-(2-(2,4-dicarboxyphenyl)-5-methoxybenzofuran-6-yl)-diaza[15]-crown-5]: the “Absorbance maxima -Na⁺ (wavelength)” value in data set [1] (100 mM tetramethylammonium chloride plus 1-5 mM Tris, no Na⁺) is listed as 346 nanometers. In addition, the “Absorbance maxima +Na⁺ (wavelength)” value in data set [1] (enough NaCl added (0.2-1 M) to saturate the Na⁺ binding) was determined as 334 nanometers. This molecule also yielded an Absorbance maxima -Na⁺ (extinction coefficient) in data set [1] (number is 10⁻³ x the extinction coefficient, lower limits for most compounds, no Na⁺) of 42000 M⁻¹ cm⁻¹. In addition, the Absorbance maxima +Na⁺ (extinction coefficient) in data set [1] (number is 10⁻³ x the extinction coefficient, lower limits, saturating NaCl (0.2-1 M)) was 47000 M⁻¹ cm⁻¹. The extinction coefficients in data set [1] (without to with Na⁺, in M-1·cm-1 (unit assumed)) is reported as 42,000-47,000. Moreover, the “Li⁺ affinity” value in data set [2] is recorded as 15 M⁻¹. In addition, the Kd in data set [2] (listed as 2PP (SBFI)) was 68 mM; in data set [2] (listed as SBFI), 67 mM; in data set [3] (listed as 2PP (SBFI)) it was 38 mM; in data set [3] (listed as SBFI), ~38 mM; in data set [5] (listed as 2PP (SBFI)), 60 mM; in data set [5] (listed as SBFI), ~60 mM. In addition, the pKa in data set [4] (first value printed (highest pKa, 1st proton), listed as 2PP (SBFI)) is listed as 5.89; in data set [4] (second value (second protonation)), 5.19.
